These results are taken from patent US12448394B2, “Heterocyclic pyrazole derivatives as type III receptor tyrosine kinase inhibitors” (DEVELOPMENT CENTER FOR BIOTECHNOLOGY, priority 2019, dated 2025).

Substitutions are numbered along the chain they refer to.

The target of one experiment is T1, FLT3 kinase (Homo sapiens, UniProt P36888).
T1 construct: purchased SignalChem
T1 sequence (P36888 27-993): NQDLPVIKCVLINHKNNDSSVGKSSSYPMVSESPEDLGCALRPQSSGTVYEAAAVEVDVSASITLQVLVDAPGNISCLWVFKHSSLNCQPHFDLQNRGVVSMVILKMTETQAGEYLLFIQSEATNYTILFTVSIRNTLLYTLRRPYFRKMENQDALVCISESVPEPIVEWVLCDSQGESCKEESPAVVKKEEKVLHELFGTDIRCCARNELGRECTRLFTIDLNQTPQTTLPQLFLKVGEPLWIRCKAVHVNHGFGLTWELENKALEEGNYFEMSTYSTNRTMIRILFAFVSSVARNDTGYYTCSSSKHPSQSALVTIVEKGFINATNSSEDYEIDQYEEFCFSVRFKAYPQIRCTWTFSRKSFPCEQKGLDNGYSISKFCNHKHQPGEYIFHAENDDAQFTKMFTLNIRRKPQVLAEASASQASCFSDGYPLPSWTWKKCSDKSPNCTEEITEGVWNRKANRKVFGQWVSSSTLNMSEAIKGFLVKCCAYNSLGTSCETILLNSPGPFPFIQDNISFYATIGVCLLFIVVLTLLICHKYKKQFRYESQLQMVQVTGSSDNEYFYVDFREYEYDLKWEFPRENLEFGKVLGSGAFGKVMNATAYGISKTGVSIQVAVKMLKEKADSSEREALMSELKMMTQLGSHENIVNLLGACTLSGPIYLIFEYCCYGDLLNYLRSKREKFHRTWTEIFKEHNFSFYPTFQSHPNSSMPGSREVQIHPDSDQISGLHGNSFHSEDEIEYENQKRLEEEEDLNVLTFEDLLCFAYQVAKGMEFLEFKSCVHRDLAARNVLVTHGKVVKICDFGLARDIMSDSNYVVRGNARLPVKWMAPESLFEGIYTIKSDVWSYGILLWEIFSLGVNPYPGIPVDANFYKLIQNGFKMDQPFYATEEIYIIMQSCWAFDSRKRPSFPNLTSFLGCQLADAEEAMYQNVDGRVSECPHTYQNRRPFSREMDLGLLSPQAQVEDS
Put plainly: FLT3 kinase assay (AlphaScreen). As to conditions: read-out: Ranking of IC50 values, FLT3. Format: biochemical. The gist of the method:
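Recombinant FLT3 (1.5 ng) phosphorylated biotinylated poly(Glu4:Tyr1) with 10 μM ATP in MOPS pH 7.0 buffer containing 10 mM MgCl2, 30 min at 30 °C, stopped with EDTA. Product detected by AlphaScreen; IC50 from duplicate serial dilutions.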
Background: Alpha assays give light when donor and acceptor beads are brought close together.

The next experiment addresses T2, FLT3-D835Y mutant kinase (Homo sapiens, UniProt P36888, D835Y).
T2 construct: purchased SignalChem
T2 sequence (P36888 27-993 D835Y): T1 sequence (P36888 27-993) with D809Y
Description: FLT3-D835Y mutant kinase assay (AlphaScreen). Format: biochemical. As to conditions: read-out: Ranking of IC50 values, FLT3-D835Y. The procedure, abridged: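 Recombinant FLT3-D835Y (1 ng) phosphorylated biotin-poly(Glu4:Tyr1) at 10 μM ATP, pH 7.0 MOPS buffer with 10 mM MgCl2, for 30 min at 30 °C, stopped with EDTA. Product was read by AlphaScreen. IC50 came from serial dilutions run in duplicate.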

As usually defined, the IC50 is the concentration at which inhibition is half-maximal. On to `Cn1ncc2ccc(-c3n[nH]c4c3Cc3sc(-c5ccc(S(=O)(=O)N6CCOCC6)cc5)cc3-4)cc21` [Compound 47, 4-((4-(3-(1-methyl-1H-indazol-6-yl)-1,4-dihydro-thieno[2′,3′:4,5]cyclopenta [1,2-c]pyrazol-6-yl)phenyl)sulfonyl) morpholine], for which the 50% inhibitory concentration (IC50) on FLT3 kinase and on FLT3-D835Y mutant kinase was < 1 nM throughout.

As for `Cn1ncc2ccc(-c3n[nH]c4c3Cc3sc(-c5cccc(C(=O)N6CCOCC6)c5)cc3-4)cc21` [Compound 37, (3-(3-(1-methyl-1H-indazol-6-yl)-1,4-dihydro-thieno[2′,3′:4,5]cyclopenta [1,2-c]pyrazol-6-yl)phenyl)(morpholino) methanone], the IC50 on FLT3 kinase and at FLT3-D835Y mutant kinase was 1 to 10 nM throughout.

Consider `CCC(c1ccc(-c2cc3c(s2)Cc2c(-c4ccc5cnn(C)c5c4)n[nH]c2-3)cc1)N1CCOCC1` (stereo not shown) [Compound 28, 4-(1-(4-(3-(1-methyl-1H-indazol-6-yl)-1,4-dihydro-thieno[2′,3′:4,5]cyclopenta [1,2-c]pyrazol-6-yl)phenyl)propyl)morpholine], for which the IC50 on FLT3 kinase and at FLT3-D835Y mutant kinase was 1 to 10 nM throughout.

As for `Cn1ncc2ccc(-c3n[nH]c4c3Cc3sc(-c5ccc(C=C6CCOCC6)cc5)cc3-4)cc21` [Compound 76, 3-(1-methyl-1H-indazol-6-yl)-6-(4-((tetrahydro-4H-pyran-4-ylidene)methyl)phenyl)-1,4-dihydrothieno[2′,3′:4,5] cyclopenta[1,2-c]pyrazole], the IC50 on FLT3 kinase and at FLT3-D835Y mutant kinase was 1 to 10 nM each time.

For the molecule `C[C@@H]1CN(Cc2ccc(-c3cc4c(s3)Cc3c(-c5ccc6cnn(C)c6c5)n[nH]c3-4)cc2)C[C@H](C)O1` [Compound 54, (2S,6R)-2,6-dimethyl-4-(4-(3-(1-methyl-1H-indazol-6-yl)-1,4-dihydro-thieno[2′,3′:4,5]cyclopenta [1,2-c]pyrazol-6-yl)benzyl)morpholine], the half-maximal inhibitory concentration (IC50) at FLT3 kinase and at FLT3-D835Y mutant kinase was < 1 nM in each case.

`Cc1ccc(-c2cc3c(s2)Cc2c(-c4ccc5cnn(C)c5c4)n[nH]c2-3)cn1` [Compound 33, 3-(1-methyl-1H-indazol-6-yl)-6-(6-methylpyridin-3-yl)-1,4-dihydrothieno [2′,3′:4,5]cyclopenta [1,2-c]pyrazole]: the 50% inhibitory concentration (IC50) on FLT3 kinase and at FLT3-D835Y mutant kinase was < 1 nM in each case.

`Cn1cc(-c2cc3c(s2)Cc2c(-c4ccc5cnn(C)c5c4)n[nH]c2-3)cc1C(=O)N1CCOCC1` [Compound 46, (1-methyl-4-(3-(1-methyl-1H-indazol-6-yl)-1,4-dihydrothieno[2′,3′:4,5]cyclopenta[1,2-c]pyrazol-6-yl)-1H-pyrrol-2-yl) (morpholino)methanone]: the IC50 at FLT3 kinase and at FLT3-D835Y mutant kinase was < 1 nM in each case.

For the molecule `Cn1ncc2ccc(-c3n[nH]c4c3Cc3sc(-c5ccc(CN6CCOCC6)c(F)c5)cc3-4)cc21` [Compound 25, 4-(2-fluoro-4-(3-(1-methyl-1H-indazol-6-yl)-1,4-dihydrothieno[2′,3′:4,5]cyclopenta[1,2-c]pyrazol-6-yl)benzyl)morpholine], the half-inhibitory concentration (IC50) on FLT3 kinase and on FLT3-D835Y mutant kinase was 1 to 10 nM each time.

As for `CN(C)C(=O)c1ccc(-c2cc3c(s2)Cc2c(-c4ccc5cnn(C)c5c4)n[nH]c2-3)cc1` [Compound 49, N,N-dimethyl-4-(3-(1-methyl-1H-indazol-6-yl)-1,4-dihydrothieno [2′,3′:4,5]cyclopenta [1,2-c]pyrazol-6-yl) benzamide], the concentration for half-maximal inhibition (IC50) at FLT3 kinase and at FLT3-D835Y mutant kinase was < 1 nM each time.

On to `Cn1ncc2ccc(-c3n[nH]c4c3Cc3sc(-c5csc(C(=O)N6CCOCC6)c5)cc3-4)cc21` [Compound 48, (4-(3-(1-methyl-1H-indazol-6-yl)-1,4-dihydro-thieno[2′,3′:4,5]cyclopenta [1,2-c]pyrazol-6-yl)thiophen-2-yl) (morpholino)methanone], for which the half-maximal inhibitory concentration (IC50) at FLT3 kinase and at FLT3-D835Y mutant kinase was < 1 nM in each case.

For the molecule `Cn1ncc2ccc(-c3n[nH]c4c3Cc3sc(-c5ccc(C(=O)N6CCOCC6)nc5)cc3-4)cc21` [Compound 23, (5-(3-(1-methyl-1H-indazol-6-yl)-1,4-dihydro-thieno[2′,3′:4,5]cyclopenta [1,2-c]pyrazol-6-yl)pyridin-2-yl)(morpholino) methanone], the IC50 at FLT3 kinase and on FLT3-D835Y mutant kinase was < 1 nM each time.

Turning to `Cn1ncc2ccc(-c3n[nH]c4c3Cc3sc(-c5csc(C(=O)N6CCOCC6)n5)cc3-4)cc21` [Compound 60, (4-(3-(1-methyl-1H-indazol-6-yl)-1,4-dihydro-thieno[2′,3′:4,5]cyclopenta [1,2-c]pyrazol-6-yl)thiazol-2-yl)(morpholino) methanone], the half-maximal inhibitory concentration (IC50) at FLT3 kinase and at FLT3-D835Y mutant kinase was < 1 nM in each case.

As for `C[C@@H]1CN(Cc2ccc(-c3cc4c(s3)Cc3c(-c5ccc6cn[nH]c6c5)n[nH]c3-4)cc2)C[C@H](C)O1` [Compound 7, (2S,6R)-4-(4-(3-(1H-indazol-6-yl)-1,4-dihydrothieno[2′,3′:4,5]cyclopenta [1,2-c]pyrazol-6-yl)benzyl)-2,6-dimethylmorpholine], the IC50 on FLT3 kinase and at FLT3-D835Y mutant kinase was 1 to 10 nM throughout.

As for `CN(c1ccc(-c2cc3c(s2)Cc2c(-c4ccc5cnn(C)c5c4)n[nH]c2-3)cc1)C1CCOCC1` [Compound 73, N-methyl-N-(4-(3-(1-methyl-1H-indazol-6-yl)-1,4-dihydrothieno [2′,3′:4,5]cyclopenta [1,2-c]pyrazol-6-yl)phenyl)tetrahydro-2H-pyran-4-amine], the IC50 on FLT3 kinase and on FLT3-D835Y mutant kinase was 1 to 10 nM throughout.

With `Cn1ncc2ccc(-c3n[nH]c4c3Cc3sc(-c5ccc(CN6CC(F)(F)C6)cc5)cc3-4)cc21` [Compound 104, 6-(4-((3,3-difluoroazeti-din-1-yl)methyl)phenyl)-3-(1-methyl-1H-indazol-6-yl)-1,4-dihydrothieno [2′,3′:4,5]cyclopenta [1,2-c]pyrazole], the half-inhibitory concentration (IC50) at FLT3 kinase and at FLT3-D835Y mutant kinase was 1 to 10 nM throughout.

Turning to `Cn1ncc2ccc(-c3n[nH]c4c3Cc3sc(-c5ccc(CN6CCOCC6)nc5)cc3-4)cc21` [Compound 10, 4-((5-(3-(1-methyl-1H-indazol-6-yl)-1,4-dihydro-thieno[2′,3′:4,5]cyclopenta [1,2-c]pyrazol-6-yl)pyridin-2-yl)methyl)morpholine], the IC50 at FLT3 kinase and on FLT3-D835Y mutant kinase was < 1 nM in each case.

Turning to `Cn1ncc2ccc(-c3n[nH]c4c3Cc3sc(-c5ccc(CN6CCCOCC6)cc5)cc3-4)cc21` [Compound 97, 4-(4-(3-(1-methyl-1H-indazol-6-yl)-1,4-dihydro-thieno[2′,3′:4,5]cyclopenta [1,2-c]pyrazol-6-yl)benzyl)-1,4-oxazepane], the IC50 at FLT3 kinase and on FLT3-D835Y mutant kinase was < 1 nM each time.
